Test results from US12396990B2, “Application of 5-hydroxytryptamine receptor 1A in preparing drug for portal hypertension” (SECOND AFFILIATED HOSPITAL, SECOND MILITARY MEDICAL …, priority 2018, dated 2025).
Entries after “also recorded” stand apart in the source; their conditions may differ. Marks after values point to notes of the source that are not given here.

Columns and labels:
[1] = tested on: cirrhotic portal hypertensive rats induced by thioacetamide (TAA); assay: Portal pressure in cirrhotic portal hypertensive rats induced by thioacetamide (TAA); type: in vivo, Male Wistar rats; conditions: TAA model; for Portal pressure: alverine 15 mg/kg p.o., means ±SEM; for Portal pressure / Effect on portal pressure: WAY 100635 1 mg/kg i.p.; for Portal pressure / Effect on portal pressure compared with carvedilol: carvedilol 10 mg/kg p.o.; for Portal pressure / Change of portal pressure vs. Vehicle: once per day for one week; for Change of portal pressure vs. Vehicle: same dosing; for Effect on portal pressure: alverine 15 mg/kg by gavage, once per day
Description: Effects of the selective antagonist of HTR1A WAY 100635, and alverine on portal pressure (PP) in cirrhotic portal hypertensive rats induced by thioacetamide (TAA).
Male Wistar rats, weighting about 140 to 160 grams (g) each, were purchased from SLAC Laboratory Animal Co., Ltd (Shanghai, China) and housed under standard animal laboratory conditions in the experimental animal center of Second Military Medical University (Shanghai, China). All animal experiments in this study were performed in accordance with protocols approved by the local Ethical Committee of the Second Military Medical University.
1) Thirty-five male Wistar rats, weighting 140 g to 160 g, were randomly divided into normal control group (N=8) and TAA group (N=27). Rats in TAA group were subjected to intraperitoneally (i.p.) injections of TAA (purchase from […]) at 200 mg/kg, which is diluted in sterile normal saline (NS; 0.9% sodium chloride), 3 times per week for 16 weeks to induce cirrhotic portal hypertension. The normal controls received injections of NS at the same timepoint. At the beginning of the 17th week, rats in TAA group were randomly divided into four groups: Vehicle group (N=7), Alverine group (N=7), WAY 100635 group (N=7), and carvedilol group (N=6).
2) Alverine (purchase from TargetMol) was diluted in the saline at a concentration of 5 mg/ml and delivered to the rats in Alverine group via gavage (p.o.). WAY 100635 (purchase from Selleck) was diluted in sterile normal saline at a concentration of 1 mg/ml and peritoneally injected (i.p.) into the rats in WAY 100635 group. Carvedilol (purchase from TargetMol) was diluted in sterile normal saline at a concentration of 1 mg/ml and delivered to the rats in carvedilol group via gavage.
3) Rats in the Alverine group, WAY 100635 group, and carvedilol group were received alverine 15 mg/kg p.o.+saline i.p., saline p.o.+WAY 100635 1 mg/kg i.p., carvedilol 10 mg/kg p.o.+saline i.p., respectively once per day for one week, while rats in vehicle group received saline p.o. and saline i.p. at the same timepoint.
4) After one-week treatment, portal pressure of all the rats were measured and rats were sacrificed for liver tissues.
(§1) 1) Self-made portal pressure measuring kit, which contains 24-Gauge scalp vein set (Y type) and catheter, and high-sensitive pressure sensor, biological signal processing system (SMUP-U, Jide experimental teaching equipment factory, Shanghai, China) were used to measure the portal pressure in rats.
(§2) 2) Connect all the catheters and device, check the tightness and set zero, then open the portal pressure measuring kit, connect the catheter with the scalp vein set and high-sensitive pressure sensor, following the connection between pressure sensor and biological signal processing system. Fill all the catheters with heparin sodium saline (volume of heparin sodium and saline: 1.25 WU: 500 ml), eliminate the air bubbles and close the catheter. Then remove the needle in the scalp vein set, place it horizontally at the portal vein height of the rat (supine position). The zero point was set after opening the catheter in the biological collection system software.
3) Rats were anesthetized with inhalational isopentane through a mask. A midline abdominal incision was made, and the portal vein was cannulated with a 24-Gauge scalp vein set, connecting with a catheter filled heparin-saline, to measure PP.
Data were presented as the means ±SEM. One-way analysis of variance (ANOVA) and student's t-tests were performed to compare data between two groups, and a P value of less than 0.05 was considered statistically significant.

[2] = tested on: cirrhotic portal hypertensive rats induced by carbon tetrachloride (CCl4); assay: Portal pressure in cirrhotic portal hypertensive rats induced by carbon tetrachloride (CCl4), antagonists (Example 2); type: in vivo, Male Wistar rats; conditions: CCl4 model; for Portal pressure: alverine 15 mg/kg p.o., means ±SEM; for Portal pressure / Effect on portal pressure: WAY 100635 1 mg/kg i.p.; for Portal pressure / Effect on portal pressure compared with carvedilol: carvedilol 10 mg/kg p.o.; for Portal pressure / Change of portal pressure vs. Vehicle: once per day for one week; for Change of portal pressure vs. Vehicle: same dosing; for Effect on portal pressure: alverine 15 mg/kg by gavage, once per day
Description: 1) Self-made portal pressure measuring kit, which contains 24-Gauge scalp vein set (Y type) and catheter, and high-sensitive pressure sensor, biological signal processing system (SMUP-U, Jide experimental teaching equipment factory, Shanghai, China) were used to measure the portal pressure in rats. 2) Connect all the catheters and device, check the tightness and set zero, then open the portal pressure measuring kit, connect the catheter with the scalp vein set and high-sensitive pressure sensor, following the connection between pressure sensor and biological signal processing system. Fill all the catheters with heparin sodium saline (volume of heparin sodium and saline: 1.25 WU: 500 ml), eliminate the air bubbles and close the catheter. Then remove the needle in the scalp vein set, place it horizontally at the portal vein height of the rat (supine position). The zero point was set after opening the catheter in the biological collection system software. 3) Rats were anesthetized with inhalational isopentane through a mask. A midline abdominal incision was made, and the portal vein was cannulated with a 24-Gauge scalp vein set, connecting with a catheter filled heparin-saline, to measure PP. Effects of the selective antagonist of HTR1A WAY 100635, and alverine on portal pressure (PP) in cirrhotic portal hypertensive rats induced by carbon tetrachloride (CCl4). 1) Thirty-one male Wistar rats, weighting 140 g to 160 g, were randomly divided into normal control group (N=7) and CCl4 group (N=24). Rats in CCl4 group were subjected to intraperitoneally (i.p.) injections of CCl4 at 0.25 ml/kg (diluted 1:3 v/v in olive oil) twice per week for 12 weeks to induce cirrhotic portal hypertension, while the normal controls received injections of olive oil at the same timepoint. At the beginning of the eleventh week, rats in CCl4 group were randomly divided into four groups: Vehicle group (N=7), Alverine group (N=6), WAY 100635 group (N=5), and carvedilol group (N=6). 2) Alverine was diluted in sterile normal saline at a concentration of 5 mg/ml and delivered to the rats in Alverine group via gavage (p.o.). WAY 100635 was diluted in sterile normal saline at a concentration of 1 mg/ml and peritoneally injected (i.p.) into the rats in WAY 100635 group. Carvedilol was diluted in sterile normal saline at a concentration of 1 mg/ml and delivered to the rats in carvedilol group via gavage. 3) Rats in the Alverine group, WAY 100635 group, and carvedilol group were received alverine 15 mg/kg p.o.+saline i.p., saline p.o.+WAY 100635 1 mg/kg i.p., carvedilol 10 mg/kg p.o.+saline i.p., respectively once per day for one week, while rats in vehicle group received saline p.o. and saline i.p. at the same timepoint. 4) After one-week treatment, portal pressure of all the rats were measured and rats were sacrificed for liver tissues. Similar as that in embodiment example 1.

[3] = tested on: isolated portal veins; assay: Contractile tension of isolated portal veins; parameters: species or system Male Wistar rats; conditions: for Effect of antagonist on 5-HT induced contraction of isolated portal vein: pre-incubation with antagonist for 20 minutes before 5-HT; for Effect of antagonist on 8-OH-DPAT induced contraction of isolated portal vein: pre-incubation with antagonist for 20 minutes before 8-OH-DPAT; for Effect of antagonist on F11440 induced contraction of isolated portal vein: pre-incubation with antagonist for 20 minutes before F11440; for Effect of agonist on contractile tension of isolated portal vein: cumulative concentrations, 3 minutes each, agonist alone
Description: Effects of the selective agonist and antagonist of HTR1A on contractile tension of isolated portal vein.
1) Male Wistar rats, weighting 140 g to 160 g, were anesthetized with inhalational isopentane through a mask. The portal veins were gently isolated from the animals and 3-5 mm of the vessel was removed under the anatomical microscope from the connective tissue, and then the vessel was placed in a cold Tyrode solution (NaCl: 148.9, KCl: 2.7, CaCl2: 1.8, NaPO4H2: 0.2, NaCO3H: 11.9, MgCl2: 1.2, glucose: 5.5 mM). Isolated portal veins were mounted in 20 ml jacketed tissue baths containing the appropriate Tyrode solution (37±0.5° C., PH=7.4) constantly bubbled with O2, by suspending them between two L-shaped stainless-steel hooks. The lower hooks were fixed and the upper hooks were attached to force-displacement transducers. Isometric force was measured and recorded using the ALC-MPA software associated with the equipment.
2) A pre-load of 1 g was applied. After mounting, isolated portal veins were equilibrated for […]. The contractile response to depolarizing potassium solution was then assessed as a test for viability. The depolarizing KCl solution (80 mM) had the same composition as the Tyrode solution used, except for the NaCl that had been completely replaced by an equimolar amount of KCl. The iPVs were washed with Tyrode solution four times and re-equilibrated for another […].
3) To evaluate the effects of 5-HT or HTR1A agonist on the contraction of iPVs, serotonin or selective agonist of HTR1A (8-OH-DPAT and F11440) was directly administrated into the tissue baths for 3 minutes in cumulatively concentrations, and the magnitude of contractile tension was recorded. To evaluate the effects of HTR1A antagonist, a pre-incubation with selective antagonist of HTR1A (WAY 100635 and NAD 299) for 20 minutes was used before increasing administration of 5-HT or HTR1A agonist.
4) 5-HT, selective agonist of HTR1A (8-OH-DPAT and F11440), and selective antagonist of HTR1A (WAY 100635 and NAD 299) were purchased from Sigma, Selleck, Tocris, and TargetMol, respectively.

[4] = tested on: cirrhotic portal hypertensive rats induced by carbon tetrachloride (CCl4); assay: Portal pressure in cirrhotic portal hypertensive rats induced by CCl4, agonist 8-OH-DPAT (Example 3); type: in vivo, Male Wistar rats; conditions: CCl4 model
Description: as §1, §2
3) Rats were anesthetized with inhalational isopentane through a mask. A midline abdominal incision was made, and the portal vein was cannulated with a 24-Gauge scalp vein set, connecting with a catheter filled heparin-saline, to measure PP. […]
4) After one-week treatment, portal pressure of all the rats were measured and rats were sacrificed for liver tissues. […]

COc1ccccc1OCCNCC(O)COc1cccc2[nH]c3ccccc3c12 (stereo not shown) [Carvedilol]
Portal pressure [1]: 14.01 ± 4.14 cmH2O
Change of portal pressure vs. Vehicle [1]: (−33.54%^#, P = 0.0025)
Portal pressure [2]: 7.99 ± 1.37 cmH2O
Change of portal pressure vs. Vehicle [2]: (−32.58%^#, P = 0.0200)

COc1ccccc1N1CCN(CCN(C(=O)C2CCCCC2)c2ccccn2)CC1 [WAY 100635]
Effect on portal pressure [1]: significantly decreased
Portal pressure [1]: 13.27 ± 3.00 cmH2O
Effect on portal pressure compared with carvedilol [1]: not significantly different
Change of portal pressure vs. Vehicle [1]: (−37.04%^#, P = 0.0001)
Effect on portal pressure [2]: significantly decrease
Portal pressure [2]: 7.36 ± 2.14 cmH2O
Effect on portal pressure compared with carvedilol [2]: not significantly different
Change of portal pressure vs. Vehicle [2]: (−37.88%^#, P = 0.0125)
Effect of antagonist on 5-HT induced contraction of isolated portal vein [3]: abrogated
Effect of antagonist on 8-OH-DPAT induced contraction of isolated portal vein [3]: almost completely inhibited
Effect of antagonist on F11440 induced contraction of isolated portal vein [3]: almost completely inhibited

NC(=O)c1ccc(F)c2c1C[C@@H](N(C1CCC1)C1CCC1)CO2 [NAD 299]
Effect of antagonist on 5-HT induced contraction of isolated portal vein [3]: abrogated
Effect of antagonist on 8-OH-DPAT induced contraction of isolated portal vein [3]: almost completely inhibited
Effect of antagonist on F11440 induced contraction of isolated portal vein [3]: almost completely inhibited

NCCc1c[nH]c2ccc(O)cc12 [5-HT, 5-hydroxytryptamine]
Effect of agonist on contractile tension of isolated portal vein [3]: concentration-dependent contraction

CCN(CCCc1ccccc1)CCCc1ccccc1 [Alverine]
Effect on portal pressure [1]: significantly decreased
Portal pressure [1]: 12.98 ± 1.74 cmH2O
Effect on portal pressure compared with carvedilol [1]: not significantly different
Change of portal pressure vs. Vehicle [1]: (−38.39%^#, P < 0.0001)
Effect on portal pressure [2]: significantly decrease
Portal pressure [2]: 6.94 ± 0.98 cmH2O
Effect on portal pressure compared with carvedilol [2]: not significantly different
Change of portal pressure vs. Vehicle [2]: (−41.44%*, P = 0.0065)

CCCN(CCC)C1CCc2cccc(O)c2C1 (stereo not shown) [8-OH-DPAT]
Effect on portal pressure ([4]; 8-OH-DPAT 1 mg/kg i.p. once per day): increased; also recorded: significantly increase
Portal pressure ([4]; 8-OH-DPAT 1 mg/kg i.p. once per day for one week, means ±SEM): 11.66 ± 1.89 cmH2O
Effect of agonist on contractile tension of isolated portal vein [3]: considerably increased the contractile force of iPVs in a concentration-dependent manner

Cn1c(=O)cnn(CCCCN2CCN(c3ncccn3)CC2)c1=O [F11440]
Effect of agonist on contractile tension of isolated portal vein [3]: considerably increased the contractile force of iPVs in a concentration-dependent manner
